Experimental data taken from ChEMBL document CHEMBL5321219, “Selective degradation of cellular BRD3 and BRD4-L promoted by PROTAC molecules in six cancer cell lines” (Eur J Med Chem, 2023).
Each block holds one compound with its values, some of them ahead of it. Calls of active or inactive are those of the source. No cut-off for these calls is given here.

Tests used:
[1] = Clearance in C57 mouse at 3 mg/kg, po measured upto 24 hrs by LC-MS/MS analysis; type: ADME, organism-based; conditions: in vivo
[2] = molecular target: T1, Protein cereblon/Bromodomain-containing protein 3 (Homo sapiens) (UniProt Q15059+Q96SW2); test: In vivo PROTAC activity at CRBN/BRD3 in SCID mouse xenografted with human MM1.S cells assessed as reduction in BRD3 protein level in tumor at 1 to 5 mg/kg, iv measured after 6 hrs by Western blot analysis; type: functional, organism-based; conditions: dose 1-5 mg/kg
[3] = Cmax in C57 mouse at 3 mg/kg, po measured upto 24 hrs by LC-MS/MS analysis; type: ADME, organism-based; set-up: dose 3 mg/kg, time < 24 hrs, route po; conditions: in vivo
[4] = molecular target: T2, Protein cereblon/Bromodomain-containing protein 4 (Homo sapiens) (UniProt O60885+Q96SW2); test: PROTAC activity at CRBN/BRD4-L in human MM1.S cells assessed as induction of protein degradation at 1 uM measured after 1 to 24 hrs by Western blot analysis; type: cell-based; conditions: time 1-24 hrs
[5] = AUC (0 to t) in C57 mouse at 3 mg/kg, iv measured upto 24 hrs by LC-MS/MS analysis; type: ADME, organism-based; set-up: dose 3 mg/kg, time < 24 hrs, route iv; conditions: in vivo
[6] = Clearance in C57 mouse at 3 mg/kg, iv measured upto 24 hrs by LC-MS/MS analysis; type: ADME, organism-based; conditions: in vivo
[7] = molecular target: T2, Protein cereblon/Bromodomain-containing protein 4 (Homo sapiens); test: In vivo PROTAC activity at CRBN/BRD4-S in SCID mouse xenografted with human MM1.S cells assessed as reduction in BRD4-S protein level in tumor at 1 to 5 mg/kg, iv measured after 6 hrs by Western blot analysis; type: functional, organism-based; conditions: dose 1-5 mg/kg
[8] = AUC (0 to t) in C57 mouse at 3 mg/kg, po measured upto 24 hrs by LC-MS/MS analysis; type: ADME, organism-based; set-up: time < 24 hrs, dose 3 mg/kg, route po; conditions: in vivo
[9] = molecular target: T2, Protein cereblon/Bromodomain-containing protein 4 (Homo sapiens); test: In vivo PROTAC activity at CRBN/BRD4-L in SCID mouse xenografted with human MM1.S cells assessed as reduction in BRD4-L protein level in tumor at 1 to 5 mg/kg, iv measured after 6 hrs by Western blot analysis; type: functional, organism-based; conditions: dose 1-5 mg/kg
[10] = molecular target: T2, Protein cereblon/Bromodomain-containing protein 4 (Homo sapiens); test: PROTAC activity at CRBN/BRD4-S in human MM1.S cells assessed as induction of protein degradation at 1 uM measured after 1 to 24 hrs by Western blot analysis; type: cell-based; conditions: time 1-24 hrs
[11] = Toxicity in SCID mouse xenografted with human MM1.S cells assessed as loss of body weight at 5 mg/kg, iv administered once daily via tail vein for 8 consecutive days and measured twice a week; type: organism-based; conditions: in vivo, 192 h, time 8 day
[12] = molecular target: T3, Protein cereblon/Bromodomain-containing protein 2 (Homo sapiens) (UniProt P25440+Q96SW2); test: In vivo PROTAC activity at CRBN/BRD2 in SCID mouse xenografted with human MM1.S cells assessed as reduction in BRD2 protein level in tumor at 5 mg/kg, iv measured after 24 hrs by Western blot analysis; type: functional, organism-based
MM1.S [13] = test: Antitumor activity against human MM1.S cells xenografted in SCID mouse assessed as tumor growth inhibition at 1 mg/kg, iv administered once daily via tail vein for 14 consecutive days and measured twice a week relative to control; type: functional; conditions: 336 h, time 14 day, read-out: TGI
[14] = Tmax in C57 mouse at 3 mg/kg, po measured upto 24 hrs by LC-MS/MS analysis; type: ADME, organism-based; conditions: in vivo
[15] = Cmax in C57 mouse at 3 mg/kg, iv measured upto 24 hrs by LC-MS/MS analysis; type: ADME, organism-based; set-up: dose 3 mg/kg, time < 24 hrs, route iv; conditions: in vivo
[16] = molecular target: T3, Protein cereblon/Bromodomain-containing protein 2 (Homo sapiens); test: In vivo PROTAC activity at CRBN/BRD2 in SCID mouse xenografted with human MM1.S cells assessed as reduction in BRD2 protein level in tumor at 1 to 5 mg/kg, iv measured after 6 hrs by Western blot analysis; type: functional, organism-based; conditions: dose 1-5 mg/kg
[17] = molecular target: T1, Protein cereblon/Bromodomain-containing protein 3 (Homo sapiens); test: In vivo PROTAC activity at CRBN/BRD3 in SCID mouse xenografted with human MM1.S cells assessed as reduction in BRD3 protein level in tumor at 1 mg/kg, iv measured after 24 hrs by Western blot analysis; type: functional, organism-based
MM1.S [18] = test: Induction of cell cycle arrest in human MM1.S cells assessed as accumulation of cells at G1 phase incubated for 24 hrs by flow cytometry analysis; type: functional, cell-based; conditions: dose 1-300 nM
MM1.S [19] = test: Antiproliferative activity against human MM1.S cells assessed as cell growth inhibition measured after 4 days by CellTitre-Glo assay; type: functional, cell-based; conditions: 96 h
[20] = Half life in C57 mouse at 3 mg/kg, iv measured upto 24 hrs by LC-MS/MS analysis; type: ADME, organism-based; conditions: in vivo
[21] = Toxicity in SCID mouse xenografted with human MM1.S cells assessed as effect on body weight at 1 mg/kg, iv administered once daily via tail vein for 14 consecutive days and measured twice a week; type: organism-based; conditions: in vivo, 336 h, time 14 day
[22] = molecular target: T1, Protein cereblon/Bromodomain-containing protein 3 (Homo sapiens); test: PROTAC activity at CRBN/BRD3 in human MM1.S cells assessed as induction of protein degradation at 1 uM measured after 1 to 24 hrs by Western blot analysis; type: cell-based; conditions: time 1-24 hrs
[23] = molecular target: T4, Bromodomain-containing protein 3 (Homo sapiens, UniProt Q15059); test: Binding affinity to recombinant human BRD3 BD2 (306 to 417 residues) assessed as inhibition constant by fluorescence polarization binding assay
[24] = molecular target: T2, Protein cereblon/Bromodomain-containing protein 4 (Homo sapiens); test: In vivo PROTAC activity at CRBN/BRD4-L in SCID mouse xenografted with human MM1.S cells assessed as reduction in BRD4-L protein level in tumor at 5 mg/kg, iv measured after 24 hrs by Western blot analysis; type: functional, organism-based
[25] = Tmax in C57 mouse at 3 mg/kg, iv measured upto 24 hrs by LC-MS/MS analysis; type: ADME, organism-based; conditions: in vivo
[26] = molecular target: T1, Protein cereblon/Bromodomain-containing protein 3 (Homo sapiens); test: PROTAC activity at CRBN/BRD3 in human MM1.S cells assessed as induction of protein degradation at 30 nM by Western blot analysis; type: cell-based; conditions: TDE = time-dependent effect
[27] = molecular target: T2, Protein cereblon/Bromodomain-containing protein 4 (Homo sapiens); test: PROTAC activity at CRBN/BRD4-L in human MM1.S cells assessed as induction of protein degradation at 30 nM by Western blot analysis; type: cell-based; conditions: TDE = time-dependent effect
[28] = molecular target: T2, Protein cereblon/Bromodomain-containing protein 4 (Homo sapiens); test: In vivo PROTAC activity at CRBN/BRD4-S in SCID mouse xenografted with human MM1.S cells assessed as reduction in BRD4-S protein level in tumor at 5 mg/kg, iv measured after 24 hrs by Western blot analysis; type: functional, organism-based
[29] = molecular target: T4, Bromodomain-containing protein 3; test: Binding affinity to recombinant human BRD3 BD1 (24 to 144 residues) assessed as inhibition constant by fluorescence polarization binding assay
[30] = Oral bioavailability in C57 mouse at 3 mg/kg measured upto 24 hrs by LC-MS/MS analysis; type: ADME, organism-based; conditions: in vivo
[31] = molecular target: T1, Protein cereblon/Bromodomain-containing protein 3 (Homo sapiens); test: In vivo PROTAC activity at CRBN/BRD3 in SCID mouse xenografted with human MM1.S cells assessed as reduction in BRD3 protein level in tumor at 5 mg/kg, iv measured after 24 hrs by Western blot analysis; type: functional, organism-based
MM1.S [32] = test: Downregulation of c-Myc protein expression in human MM1.S cells at 0.1 to 30 nM measured after 24 hrs by Western blot analysis; type: functional, cell-based; conditions: dose 0.1-30 nM
MM1.S [33] = test: Antitumor activity against human MM1.S cells xenografted in SCID mouse assessed as tumor growth inhibition at 5 mg/kg, iv administered once daily via tail vein for 8 consecutive days and measured twice a week relative to control; type: functional; conditions: 192 h, time 8 day, read-out: TGI
[34] = molecular target: T3, Protein cereblon/Bromodomain-containing protein 2 (Homo sapiens); test: PROTAC activity at CRBN/BRD2 in human MM1.S cells assessed as induction of protein degradation at 1 uM measured after 1 to 24 hrs by Western blot analysis; type: cell-based; conditions: time 1-24 hrs
MM1.S [35] = test: Downregulation of c-Myc expression in human MM1.S cells at 30 nM measured after 1 to 24 hrs by Western blot analysis; type: functional, cell-based; conditions: time 1-24 hrs
MV4-11 = test: Antiproliferative activity against human MV4-11 cells assessed as cell growth inhibition measured after 3 days by CellTitre-Glo assay; type: functional, cell-based; conditions: MV4-11, 72 h
Mus musculus = test: In vivo PROTAC activity at CRBN/BRD4-L in SCID mouse xenografted with human MM1.S cells assessed as reduction in BRD4-L protein level in tumor at 100 mg/kg, po measured after 6 hrs by Western blot analysis; type: functional, organism-based

T1 sequence (Q15059 2-726 limits assumed): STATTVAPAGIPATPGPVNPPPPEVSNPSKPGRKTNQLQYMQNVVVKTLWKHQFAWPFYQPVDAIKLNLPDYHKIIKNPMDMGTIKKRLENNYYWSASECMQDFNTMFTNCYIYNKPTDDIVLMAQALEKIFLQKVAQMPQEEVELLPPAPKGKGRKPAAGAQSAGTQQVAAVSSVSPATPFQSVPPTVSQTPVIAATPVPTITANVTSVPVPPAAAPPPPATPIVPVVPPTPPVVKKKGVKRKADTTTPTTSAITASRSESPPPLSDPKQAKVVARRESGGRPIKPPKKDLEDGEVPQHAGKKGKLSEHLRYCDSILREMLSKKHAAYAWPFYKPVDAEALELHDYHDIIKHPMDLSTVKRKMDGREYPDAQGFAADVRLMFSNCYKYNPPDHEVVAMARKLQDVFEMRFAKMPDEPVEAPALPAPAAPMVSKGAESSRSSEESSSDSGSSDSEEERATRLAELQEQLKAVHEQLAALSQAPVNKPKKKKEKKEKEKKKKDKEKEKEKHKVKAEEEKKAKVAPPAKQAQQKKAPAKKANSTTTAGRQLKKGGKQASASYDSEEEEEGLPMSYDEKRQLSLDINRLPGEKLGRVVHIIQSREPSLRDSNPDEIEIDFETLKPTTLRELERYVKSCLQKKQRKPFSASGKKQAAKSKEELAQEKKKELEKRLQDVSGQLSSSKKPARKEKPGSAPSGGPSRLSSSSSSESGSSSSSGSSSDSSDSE
T1 sequence (Q96SW2 whole entry partner): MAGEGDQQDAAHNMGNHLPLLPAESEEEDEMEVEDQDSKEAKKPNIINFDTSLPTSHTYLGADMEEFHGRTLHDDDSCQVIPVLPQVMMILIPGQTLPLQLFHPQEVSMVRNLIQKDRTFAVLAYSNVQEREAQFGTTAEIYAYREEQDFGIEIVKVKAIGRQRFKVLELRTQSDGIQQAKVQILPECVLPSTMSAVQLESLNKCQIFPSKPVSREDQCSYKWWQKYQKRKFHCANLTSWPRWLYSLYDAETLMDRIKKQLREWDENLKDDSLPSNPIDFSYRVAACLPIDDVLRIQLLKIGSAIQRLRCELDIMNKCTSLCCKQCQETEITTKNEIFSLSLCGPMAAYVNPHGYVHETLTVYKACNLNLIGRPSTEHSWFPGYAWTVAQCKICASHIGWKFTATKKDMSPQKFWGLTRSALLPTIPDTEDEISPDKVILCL
T3 sequence (P25440 whole entry, looked up): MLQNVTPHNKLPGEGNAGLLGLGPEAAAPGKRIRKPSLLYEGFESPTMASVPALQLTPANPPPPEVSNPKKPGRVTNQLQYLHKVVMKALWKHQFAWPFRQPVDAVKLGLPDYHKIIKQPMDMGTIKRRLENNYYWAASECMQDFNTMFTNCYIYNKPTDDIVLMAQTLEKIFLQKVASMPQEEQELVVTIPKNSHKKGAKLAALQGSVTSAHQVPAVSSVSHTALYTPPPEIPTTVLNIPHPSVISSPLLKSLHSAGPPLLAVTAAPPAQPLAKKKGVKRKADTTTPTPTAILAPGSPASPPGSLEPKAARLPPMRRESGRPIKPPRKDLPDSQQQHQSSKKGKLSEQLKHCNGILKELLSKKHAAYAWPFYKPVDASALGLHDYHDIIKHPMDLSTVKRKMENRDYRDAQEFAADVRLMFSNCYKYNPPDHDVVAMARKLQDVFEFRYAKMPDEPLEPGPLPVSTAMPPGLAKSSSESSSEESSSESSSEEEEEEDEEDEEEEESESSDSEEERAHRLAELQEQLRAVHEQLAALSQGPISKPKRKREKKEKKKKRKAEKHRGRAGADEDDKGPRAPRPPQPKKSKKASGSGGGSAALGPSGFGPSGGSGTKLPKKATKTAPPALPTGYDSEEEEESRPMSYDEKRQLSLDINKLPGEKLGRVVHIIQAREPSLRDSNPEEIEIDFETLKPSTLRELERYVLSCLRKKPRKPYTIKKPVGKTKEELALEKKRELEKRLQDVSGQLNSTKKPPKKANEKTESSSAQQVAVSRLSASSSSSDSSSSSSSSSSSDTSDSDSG
T3 sequence (Q96SW2 whole entry, looked up): as the sequence (Q96SW2 whole entry partner) above
T2 sequence (Q96SW2 whole entry, looked up, other chains not shown): as the sequence (Q96SW2 whole entry partner) above
T4 sequence (Q15059 whole entry, the tested form may be a part): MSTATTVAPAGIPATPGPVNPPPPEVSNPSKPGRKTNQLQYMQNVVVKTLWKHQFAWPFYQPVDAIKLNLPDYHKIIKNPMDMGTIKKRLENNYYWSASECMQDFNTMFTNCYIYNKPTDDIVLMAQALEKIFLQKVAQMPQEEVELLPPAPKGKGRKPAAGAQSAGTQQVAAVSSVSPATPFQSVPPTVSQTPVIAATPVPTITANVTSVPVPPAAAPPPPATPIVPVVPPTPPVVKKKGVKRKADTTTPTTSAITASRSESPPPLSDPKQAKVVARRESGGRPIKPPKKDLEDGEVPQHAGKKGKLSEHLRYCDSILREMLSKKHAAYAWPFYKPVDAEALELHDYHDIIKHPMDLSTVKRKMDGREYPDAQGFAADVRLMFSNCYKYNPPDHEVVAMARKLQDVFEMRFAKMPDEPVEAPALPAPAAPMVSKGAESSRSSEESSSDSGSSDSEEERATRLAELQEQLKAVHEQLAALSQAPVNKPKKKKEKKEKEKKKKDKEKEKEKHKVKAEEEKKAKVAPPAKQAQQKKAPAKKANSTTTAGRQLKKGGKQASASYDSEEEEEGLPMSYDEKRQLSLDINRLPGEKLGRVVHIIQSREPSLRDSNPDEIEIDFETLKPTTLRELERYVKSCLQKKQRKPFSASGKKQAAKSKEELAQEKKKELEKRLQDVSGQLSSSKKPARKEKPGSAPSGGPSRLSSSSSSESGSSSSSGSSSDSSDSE

- CL/F [1]: 1240 mL/min/kg
- Activity [2]: Active
- Cmax [3]: 51 ng/mL
- Activity [4]: Active
- AUCt [5]: 2961 ng·h/mL
- clearance [6]: 16.9 mL/min/kg
- Activity [7]: inactive
- AUCt [8]: 26 ng·h/mL
- Activity [9]: Active
- Activity [10]: inactive
- Activity [12]: inactive
- Tmax [14]: 24 min
- Cmax [15]: 7410 ng/mL
- Activity [16]: inactive
- Activity [17]: inactive
- IC50 (MM1.S [19]): 85.4 nM
- half-life [20]: 30 min
- Activity [22]: Active
- Ki [23]: 2.8 nM
- Activity [24]: inactive
- Tmax [25]: 6 min
- Activity [26]: Tde
- Activity [27]: Tde
- Activity [28]: inactive
- Ki [29]: 16.9 nM
- F [30]: 2.14%
- Activity [31]: Active
- Activity [34]: Active
- IC50 (MV4-11): 7.46 nM
SMILES: Cc1nnc2n1-c1ccc(-c3ccc(CN(C)CCCCc4cccc5c4CN(C4CCC(=O)NC4=O)C5=O)cc3)cc1C(Nc1ccc(Cl)cc1)CC2 (centres undefined)
- Activity [11]: Toxic
- inhibition in vivo at 1 mg/kg (MM1.S [13]): 40%
- Activity (MM1.S [18]): Dose-Dependent Effect
- Activity [21]: Non-Toxic
- Activity (MM1.S [32]): Active
- inhibition in vivo at 5 mg/kg (MM1.S [33]): 64%
- Activity (MM1.S [35]): Active

- IC50 (MM1.S [19]): 2320 nM
- IC50 (MV4-11): 270 nM
SMILES: Cc1nnc2n1-c1ccc(-c3cnn(C)c3)cc1[C@H](Nc1ccc(Cl)cc1)CC2
- Activity (Mus musculus): Active
